Laboratory results from patent publication US9757375B2, “Compounds that inhibit human DNA ligases and methods of treating cancer” (University of Maryland, Baltimore, priority 2007, dated 2017).
Where two headings read alike, the source gives them in different places.

What was measured:
[1] = test system: HCT116 and MCF10A cells; assay: Screen for potentiation of DNA damaging agents, cell line not stated with the result; type: cell-based, human; settings: for radiosensitizer activity / enhancement of the cytostatic effect of MMS / synergy with PARP inhibitors: 50 μM; for radiosensitizer activity: 2 gray of ionizing radiation; for enhancement of the cytostatic effect of MMS: MMS 100 μM; for cell survival: sensitivity to DNA damaging agent (IR, MMS): cell line not stated; for synergy with PARP inhibitors: 3 AB 2 mM
Excerpt: The 192 human DNA ligase inhibitors were screened in parallel for effects on proliferation and the ability to potentiate the effects of several DNA damaging agents using two cell human lines, a colon cancer line HCT116 and a normal breast epithelial cell line MCF10A using a Biomek FX Laboratory Automation Workstation as described (23). The DNA damaging agents used, methyl methanesulfonate (MMS), camptothecin, cis-platinum, 3 aminobenzamide and ionizing radiation, are representatives of classes of agents used to treat cancer. Briefly, HCT116 and MCF10A cells were plated in 96 well plates such that the cultures were about 80% confluent after 5 days incubation. Compounds were added to the cultures at either 15 μM or 50 μM 1 day after plating. After incubation for 3 days, cell lysed in a solution containing 1.2% Igepal CA-630 and SYBR green that stains DNA (1:1000, Molecular Probes, Eugene, Oreg.). Subsequently, fluorescence was measured per well. The studies with DNA damaging agents were performed as follows. […] For ionizing radiation, cells were pre-incubated with the compounds at 50 μM for 1 hour prior to exposure to 2 gray of ionizing radiation. Cultures were incubated for 3 days and then treated as above.

[2] = test system: HCT116 cells; assay: MTT cell growth assay; type: cell-based, human; settings: for IC50: Homo sapiens
Method in brief: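 HCT116 cells (1200 per well) adhered overnight, then were exposed to serially diluted compounds for 5 days. MTT was added for 4 h, formazan dissolved in isopropanol and absorbance read at 560 nm as the growth measure.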

[3] = test system: HCT116 cells; assay: Colony forming (survival) assay; type: cell-based, human; settings: for potentiation of killing by ionizing radiation: HCT116, 2 gray
Description: (§1) For survival assays, cells were plated in 6 well plates and grown either in the absence or presence of ligase inhibitors. Where indicated, either MMS (0-50 μM) was added to the medium or the cells were irradiated in a Cs-137 irradiator (0-2.5 Gy). After two weeks, colonies were stained with crystal violet (Sigma) and then counted.
(§2) To confirm that the DNA ligase inhibitors directly kill cells and potentiate cell killing by DNA damaging agents, we performed colony forming assays.
(§3) Different concentrations of Compound 184 were added to asynchronous subconfluent populations of HCT116, MCF7 and MCF10A cells. Colonies were counted after two weeks. (FIG. 6A).
(§4) Different concentrations of Compound 151 were added to asynchronous subconfluent populations of HCT116 and MCF10A cells in the absence or presence of MMS (50 μM). Colonies were counted after two weeks. (FIG. 6B).
(§5) Different concentrations of Compound 189 were added to asynchronous subconfluent populations of HCT116 and MCF10A cells. After 1 hour, cultures were irradiated with 2 gray of ionizing radiation. Colonies were counted after two weeks. (FIG. 6C).
(§6) Different concentrations of Compound 67 were added to asynchronous subconfluent populations of HCT116, MCF7 and MCF10A cells. After 1 hour, cultures were irradiated with 2 gray of ionizing radiation. Different concentrations of Compound 67 were added to asynchronous subconfluent populations of HCT116 and MCF10A cells in the absence or presence of MMS (50 μM). Colonies were counted after two weeks. (FIG. 6D).

[4] = test system: MCF10A cells; assay: Colony forming (survival) assay; type: cell-based, human; settings: colonies after two weeks; for effect on MMS cytotoxicity: MMS 50 μM
Description: as §1, §2, §3, §4, §5, §6

[5] = molecular target: hLigIV/XRCC4 (Homo sapiens, UniProt P49917); assay: Radioactive gel-based DNA ligation assay; type: biochemical; parameters: concentration or dose not given beside the values
[6] = test system: HeLa cell extract; assay: Cell extract assay of nonhomologous end-joining (1 kb cohesive-ended fragment); type: biochemical, human; settings: 100 μmol/L (also 25 μM in the source), FIG. 4C
Description: Extracts were prepared from human cervical cancer HeLa cells as described previously (27, 31). For base excision repair (BER) assays, the extraction buffer contained 100 mmol/L of KCl, whereas for nonhomologous end-joining (NHEJ) assays, extraction buffer contained 400 mmol/L of KCl. Where indicated, DNA ligases were immunodepleted from the extracts as described (32) using protein A or G Sepharose beads (GE Healthcare) and anti-Lig1, anti-LigIII (GeneTex), or anti-LigIV (ABCAM) antibodies. Depletion was confirmed by immunoblotting.
To assay NHEJ (24), a 1 kb end-labeled BamHI fragment (0.1 pmol; (33)). and 20 μg of extract were incubated in ligation buffer (final volume, 20 μL), for 120 min at 25° C. either in the presence or absence of ligase inhibitors (100 μmol/L). DNA fragments were resolved by separation through a 0.8% agarose gel. Labeled DNA fragments were detected in the dried gel by phosphorImager analysis (Molecular Dynamics).
Linear DNA molecules with short complementary single strand overhangs are repaired by non-homologous end joining that is completed by DNA ligase IV (27). A HeLa extract was incubated with a labeled linear cohesive-ended 1 kb fragment with cohesive ends repair in the absence or presence of Compounds 67, 82 and 189 (25 μM).). Lane 7, DNA ligase I was immunodepleted from the extract prior to the assay. […], DNA ligase III was immunodepleted from the extract prior to the assay. […], DNA ligase IV was immunodepleted from the extract prior to the assay. After separation by native agarose gel electrophoresis, the linear DNA substrate, re-circularized substrate and dimers trimers etc of the 1 kb substrate were detected by phosphorimaging (27). […]

[7] = HCT-116, cell growth, compound alone, read-out: IC50 (μM) HCT116
[8] = HCT-116, sections 'high concentrations (~50 μM)' and 'active in vitro that decreased cell growth', same figures given in μM elsewhere in Table 6, read-out: IC50 HCT116 (head without unit)

Chain of hLigIV/XRCC4 (P49917 whole entry, the tested form may be a part): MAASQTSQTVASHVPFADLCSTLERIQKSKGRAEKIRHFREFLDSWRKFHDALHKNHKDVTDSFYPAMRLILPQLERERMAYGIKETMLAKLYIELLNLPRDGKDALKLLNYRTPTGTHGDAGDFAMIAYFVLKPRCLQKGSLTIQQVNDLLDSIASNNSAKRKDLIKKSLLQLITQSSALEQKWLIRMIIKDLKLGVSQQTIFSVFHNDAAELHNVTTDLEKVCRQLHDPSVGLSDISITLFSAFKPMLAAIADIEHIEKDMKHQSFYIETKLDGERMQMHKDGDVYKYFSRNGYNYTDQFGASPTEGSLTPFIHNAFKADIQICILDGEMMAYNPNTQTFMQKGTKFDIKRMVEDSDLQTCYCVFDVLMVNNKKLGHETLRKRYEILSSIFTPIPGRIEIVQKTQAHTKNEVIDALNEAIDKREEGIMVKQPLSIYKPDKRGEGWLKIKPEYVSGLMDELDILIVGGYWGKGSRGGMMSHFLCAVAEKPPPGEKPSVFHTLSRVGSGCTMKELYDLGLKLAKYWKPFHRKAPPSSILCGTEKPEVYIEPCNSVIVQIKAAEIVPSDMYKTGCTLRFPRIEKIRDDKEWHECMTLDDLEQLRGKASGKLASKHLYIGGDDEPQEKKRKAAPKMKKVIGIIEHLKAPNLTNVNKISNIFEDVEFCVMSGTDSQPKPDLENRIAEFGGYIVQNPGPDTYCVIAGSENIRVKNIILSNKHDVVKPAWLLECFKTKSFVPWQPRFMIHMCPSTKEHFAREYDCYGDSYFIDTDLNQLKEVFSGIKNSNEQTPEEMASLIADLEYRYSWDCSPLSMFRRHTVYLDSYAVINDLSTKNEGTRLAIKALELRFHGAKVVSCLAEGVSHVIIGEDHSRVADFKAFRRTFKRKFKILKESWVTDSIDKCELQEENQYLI
Chain of hLigIV/XRCC4 (Q13426 whole entry partner, the tested form may be a part): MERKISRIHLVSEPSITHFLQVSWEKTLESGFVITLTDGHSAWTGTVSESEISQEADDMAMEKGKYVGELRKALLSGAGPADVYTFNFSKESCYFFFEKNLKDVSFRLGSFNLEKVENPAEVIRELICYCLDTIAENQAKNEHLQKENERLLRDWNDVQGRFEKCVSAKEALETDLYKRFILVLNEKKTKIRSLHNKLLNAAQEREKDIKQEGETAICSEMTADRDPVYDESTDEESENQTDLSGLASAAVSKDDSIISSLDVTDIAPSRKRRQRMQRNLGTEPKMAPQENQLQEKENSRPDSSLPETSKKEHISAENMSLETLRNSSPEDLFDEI

SMILES: O=C(Cn1cnc([N+](=O)[O-])n1)N/N=C/c1ccc(O)cc1O [Compound 151]
- radiosensitizer activity [1]: act as radiosensitizers
- enhancement of the cytostatic effect of MMS [1]: enhance the cytostatic effect of MMS
- cell survival: sensitivity to DNA damaging agent (IR, MMS) [1]: MMS sensitive
- IC50 [2, 7]: 22 µM
- IC50 [2, 8]: 22 µM
- potentiation of killing by MMS ([3]; HCT116, MMS 50 μM, colonies after two weeks): markedly potentiates
- effect on MMS cytotoxicity [4]: no significant effect

SMILES: O=C(O)CSc1cc(Cl)c2nonc2c1[N+](=O)[O-] [Compound 64]
- % activity Inhibition hLigIV gel [5]: 66%
- radiosensitizer activity [1]: act as radiosensitizers
- synergy with PARP inhibitors [1]: act synergistically with PARP inhibitors
- cell survival: sensitivity to DNA damaging agent (IR, MMS) [1]: IR sensitive

SMILES: Cc1c(Br)cc(NCC(=O)N/N=C\c2cc([N+](=O)[O-])ccc2O)cc1Br [Compound 67]
- joining of linear DNA molecules (non-homologous end joining) [6]: had no effect
- synergy with PARP inhibitors [1]: act synergistically with PARP inhibitors
- enhancement of the cytostatic effect of MMS [1]: enhance the cytostatic effect of MMS
- cell survival: sensitivity to DNA damaging agent (IR, MMS) [1]: IR, MMS sensitive
- IC50 [2, 7]: 8 µM
- IC50 [2, 8]: 8 µM
- potentiation of killing by ionizing radiation ([3]; colonies after two weeks): potentiates
- effect on ionizing radiation-induced cytotoxicity ([4]; 2 gray): no significant effect
- effect on MMS cytotoxicity [4]: no significant effect

SMILES: O=c1[nH]ncc(N/N=C\c2ccc(O)c([N+](=O)[O-])c2)c1Cl [Compound 82]
- joining of linear DNA molecules (non-homologous end joining) [6]: had no effect

SMILES: Nc1nc(S)nc(O)c1/N=C/c1ccccc1 [Compound 189]
- % activity Inhibition hLigIV gel [5]: 80%
- joining of linear DNA molecules (non-homologous end joining) [6]: reduced joining of the linear DNA molecules
- cell survival: sensitivity to DNA damaging agent (IR, MMS) [1]: IR sensitive
- potentiation of killing by ionizing radiation ([3]; colonies after two weeks): markedly potentiates
- effect on MMS cytotoxicity [4]: no significant effect

SMILES: CS(=O)(=O)NNC(=O)C(=O)NNc1ccccc1 [Compound 184]
- inhibition of cell proliferation of HCT116 at 50 μM (MTT) ([2]; 50 μM, numbers printed under HCT116 in r92-r106: 16, 64, 124, 130, 165, 184 (30%), 195, 197, 198, 212): 184 (30%)
- cell killing (colony formation) ([3]; HCT116, compound alone, compared with MCF10A, FIG. 6A): more effective at killing
- cell killing (colony formation) ([4]; compound alone, FIG. 6A): kills

SMILES: O=C1Nc2ccccc2Oc2cc([N+](=O)[O-])cc([N+](=O)[O-])c21 [Compound 180]
- IC50 ([2]; HCT-116, read-out: IC50 HCT116 (head without unit)): 3 µM
- IC50 [2, 7]: 12 µM

SMILES: O=C(c1ccc(O)cc1)c1ccccc1O [Compound 200]
- IC50 [2, 7]: ~10 µM
- IC50 [2, 8]: 10 to 150 µM

SMILES: Cc1oc(C(=O)O)cc1CSCc1cc(C(=O)O)c(C)o1 [Compound 197]
- % activity Inhibition hLigIV gel [5]: 100%
